Experimental data taken from patent publication US20250213547A1, “METHODS OF TREATING NEUROLOGICAL DISEASES” (priority 2022, published 2025).

Excerpt: The datasets from the clinical trials described above were used in a population PK and PK/PD modeling analysis. Three PK samples were excluded from the analyses because their baseline values were over the limit of quantification. The ELEKTRA dataset contained 69 single-dose and 270 steady-state dose events. Individual variables from those studies were included in the dataset to determine significant covariates and their effect size. Subject variables included the study ID, patient ID, treatment, health status, and DEE disease type. Baseline demographic variables included age, body weight, body mass index, gender, race, and Chinese or Asian ethnic origin. Baseline laboratory variables included aspartate aminotransferase (AST), gamma-glutamyl transferase (GGT), alkaline phosphatase (ALP), bilirubin, creatinine, albumin, alpha-1-acid glycoprotein (A1-AGLP), estimated glomerular filtration rate (eGFR), and creatinine clearance (CrCl)) (see formulas in example 12). […] Another variable was the type of antiepileptic drugs patients were on concomitantly during the trial.
The dataset included 2193 observations from 173 subjects. Both PK and PK/PD parameters were analyzed as a mixed-effects population model using the computer program NONMEM. A mixed-effects model takes into account fixed value parameters and random-effect parameters. The first stage of the analysis began with using only data obtained from the oral solution studies in a structural and statistical base model to account for concentration changes over time and for between and within subject variability. Several different structural model types were tested and the structure of the omega complex was optimized. Omega, expressed as random effects variance, represents the difference between an individual's parameter value and the population value and describes the distribution of between subject variability across the population. The linear two-compartment model incorporates delayed first-order absorption from oral administration. Model parameters were absorption lag time (ALAG1), bioavailability (F1), elimination clearance (CL), absorption rate constant (KA), central volume (V2), inter-compartmental clearance (Q), and peripheral volume (V3). Random effects were estimated for F1, KA, Q, and V3. The omega matrix was restricted to a diagonal structure, wherein between parameter correlations are ignored. A combined additive and proportional residue error model was utilized to broadly reflect […].
The second stage of the analysis added data collected from the tablet formulation studies in adults.
The third stage of the analysis added the pediatric data collected from the ELEKTRA study. A range of different formulations and administration procedures were used for the pediatric patients, including swallowed mini-tablets, tablets, and crushed tablets administered through a gastrostomy tube. […] Next variables were screened separately by correlating the individual random effects with the base model. An F-test was used to determine the significance of the individual random effects with and without the variable. Candidates were further screened using a standard forward inclusion (α<0.05), backward deletion (α<0.01) procedure.

[1] = between subject variation as standard deviation

O=C(c1cccnc1-c1ccncc1)N1CCC(O)(Cc2ccccc2)CC1 [soticlestat]
simulated change in AUC with twice the dosage (FIG. 21, reference ELEKTRA patient 100 mg BID): 130% | F1: BSV [1]: 0.538 | KA: BSV [1]: 1.1 | Q: BSV [1]: 0.369 | V3: BSV [1]: 0.559 | ALAG1: Non-OS formulation (%) (covariate effect on ALAG1): 25.2% | CL: Patient (%) (covariate effect on CL): −24.4% | F1: A1-AGLP exponent (covariate effect on F1): 0.739 | F1: weight exponent (covariate effect on F1): −0.516 | F1: Dose exponent (covariate effect on F1, fixed): 0.204 | KA: BMI exponent (covariate effect on KA): 2.52 | KA: Strong Inducer (%) (covariate effect on KA): −73.7% | KA: non-OS formulation (%) (covariate effect on KA): −45.7% | KA: Dose exponent (covariate effect on KA, fixed): −0.753 | Q: Dose exponent (covariate effect on Q, fixed): −0.218 | V3: Asian (%) (covariate effect on V3): −39.4% | V3: eGFI exponent (covariate effect on V3): −0.469 | V3: Dose exponent (covariate effect on V3, fixed): −0.214 | ALAG1 typical value (final population PK model): 0.131 h | F1: BSV explained by A1-AGLP (%) (final population PK model): 33.6% | KA typical value (final population PK model): 7.49 h⁻¹ | Q typical value (final population PK model): 1.16 L/h | V2 typical value (final population PK model): 2.99 L | V3 typical value (final population PK model): 7.51 L | F1 typical value (final population PK model, fixed): 0.0216 | CL typical value (human): 4.31 L/h | estimated weight exponent on steady state AUC (human): 0.516 | typical value for CL/F (human): 150 L/h | typical value for V2/F (central volume distribution) (population model): 138.43 L
